The source of these data is ChEMBL document CHEMBL5104172, “Design, synthesis, and antibacterial activity of derivatives of Tryptophanyl-tRNA synthetase inhibitor indolmycin” (Eur J Med Chem, 2022).

Common to all, as to format: functional
The subject of assay [1] is Staphylococcus aureus. Nature of the assay: Antibacterial activity against methicillin-resistant Staphylococcus aureus NRS384 measured by liquid dilution method.
The subject of assay [2] is Staphylococcus aureus. Nature of the assay: Antibacterial activity against Staphylococcus aureus ATCC 29213 measured by liquid dilution method.
Another assay has as its system Escherichia coli. Put plainly: Antibacterial activity against Escherichia coli ATCC 25922 measured by liquid dilution method.
Assay [3] has as its system Staphylococcus aureus. Nature of the assay: Antibacterial activity against methicillin-resistant Staphylococcus aureus MRSA17-1 measured by liquid dilution method.
The subject of assay [4] is Staphylococcus aureus. Put plainly: Antibacterial activity against methicillin-resistant Staphylococcus aureus MRSA17-2 measured by liquid dilution method.
Assay [5] has as its system Staphylococcus aureus. Nature of the assay: Antibacterial activity against methicillin-resistant Staphylococcus aureus MRSA17-3 measured by liquid dilution method.
For assay [6], the system named is Staphylococcus aureus. Nature of the assay: Antibacterial activity against methicillin-resistant Staphylococcus aureus MRSA17-5 measured by liquid dilution method.
Assay [7] relates to Staphylococcus aureus. Put plainly: Antibacterial activity against methicillin-resistant Staphylococcus aureus MRSA17-6 measured by liquid dilution method.
The subject of assay [8] is Staphylococcus aureus. Nature of the assay: Antibacterial activity against methicillin-resistant Staphylococcus aureus ATCC 33591 measured by liquid dilution method.
In assay [9] the test system is Staphylococcus aureus. Put plainly: Antibacterial activity against methicillin-resistant Staphylococcus aureus ATCC 43300 measured by liquid dilution method.
The subject of assay [10] is Staphylococcus aureus. Put plainly: Antibacterial activity against vancomycin-intermediate Staphylococcus aureus ATCC 700699 measured by liquid dilution method.
For assay [11], the system named is Staphylococcus aureus. Put plainly: Antibacterial activity against vancomycin-intermediate Staphylococcus aureus ATCC 700788 measured by liquid dilution method.
Assay [12] deals with Staphylococcus aureus. Put plainly: Antibacterial activity against methicillin-sensitive Staphylococcus aureus MSSA17-1 measured by liquid dilution method.
Assay [13] concerns Staphylococcus aureus. Nature of the assay: Antibacterial activity against methicillin-sensitive Staphylococcus aureus MSSA17-2 measured by liquid dilution method.
Assay [14] concerns Staphylococcus aureus. Put plainly: Antibacterial activity against methicillin-sensitive Staphylococcus aureus MSSA17-3 measured by liquid dilution method.
Assay [15] relates to Staphylococcus epidermidis. Put plainly: Antibacterial activity against methicillin-resistant Staphylococcus epidermidis MRSE17-1 measured by liquid dilution method.
Assay [16] has as its system Staphylococcus epidermidis. Nature of the assay: Antibacterial activity against methicillin-resistant Staphylococcus epidermidis MRSE17-2 measured by liquid dilution method.
Assay [17] concerns Staphylococcus epidermidis. Put plainly: Antibacterial activity against methicillin-resistant Staphylococcus epidermidis MRSE17-3 measured by liquid dilution method.
Assay [18] has as its system Staphylococcus epidermidis. Nature of the assay: Antibacterial activity against methicillin-resistant Staphylococcus epidermidis MRSE17-4 measured by liquid dilution method.
Assay [19] deals with Staphylococcus epidermidis. Put plainly: Antibacterial activity against methicillin-resistant Staphylococcus epidermidis MRSE17-6 measured by liquid dilution method.
The test system of assay [20] is Staphylococcus epidermidis. Nature of the assay: Antibacterial activity against methicillin-sensitive Staphylococcus epidermidis MSSE17-1 measured by liquid dilution method.
Assay [21] concerns Staphylococcus epidermidis. Put plainly: Antibacterial activity against methicillin-sensitive Staphylococcus epidermidis MSSE17-2 measured by liquid dilution method.
The test system of assay [22] is Staphylococcus epidermidis. Put plainly: Antibacterial activity against methicillin-sensitive Staphylococcus epidermidis MSSE17-3 measured by liquid dilution method.
The test system of assay [23] is Enterococcus faecalis. Put plainly: Antibacterial activity against Enterococcus faecalis EFA17-1 measured by liquid dilution method.
The test system of assay [24] is Enterococcus faecalis. Put plainly: Antibacterial activity against Enterococcus faecalis ATCC 29212 measured by liquid dilution method.
Assay [25] concerns Enterococcus faecium. Put plainly: Antibacterial activity against Enterococcus faecium EFM17-1 measured by liquid dilution method.
Assay [26] deals with Enterococcus faecium. Nature of the assay: Antibacterial activity against Enterococcus faecium EFM17-2 measured by liquid dilution method.

Converted amounts (≈) assume the structure as drawn.

What is called MIC is the least concentration at which growth counts as inhibited.

With `CNC1=NC(=O)C(C(C)c2c[nH]c3cccc(C)c23)O1` (racemic), the results for the MIC in the assay with Staphylococcus aureus [1], against Staphylococcus aureus [2] and against Escherichia coli were more than 128 µg/mL, 2 µg/mL (≈ 7.37 µM) and 32 µg/mL (≈ 118 µM), respectively.

Turning to `CCN(CC)c1cccc2[nH]cc(C(C)C3OC(NC)=NC3=O)c12` (racemic), the minimum inhibitory concentration (MIC) was more than 128 µg/mL against Staphylococcus aureus [1], 64 µg/mL (≈ 195 µM) in the assay with Staphylococcus aureus [2] and more than 128 µg/mL in the assay on Escherichia coli.

As to `CC(c1c[nH]c2cccc(F)c12)C1SC(N)=NC1=O` (racemic), the figures for the MIC with Staphylococcus aureus [1], against Staphylococcus aureus [2] and in the assay with Escherichia coli were more than 128 µg/mL, 16 µg/mL (≈ 57.7 µM) and more than 128 µg/mL, respectively.

In the case of `CNC1=NC(=O)C(C(C)c2c[nH]c3ccc(N4CCCCC4)cc23)O1` (racemic), the MIC in the assay on Staphylococcus aureus [1], in the assay with Staphylococcus aureus [2] and in the assay on Escherichia coli was more than 128 µg/mL in each case.

In the case of `CC(c1c[nH]c2ccccc12)C1OC(N)=NC1=O` (racemic), the MIC in the assay with Staphylococcus aureus [1] was more than 128 µg/mL; against Staphylococcus aureus [2], 8 µg/mL (≈ 32.9 µM); with Escherichia coli it was more than 128 µg/mL.

Turning to `CNC1=NC(=O)[C@H]([C@H](C)c2c[nH]c3cccc(Br)c23)O1`, the minimal inhibitory concentration (MIC) stood at 4 µg/mL (≈ 11.9 µM) against Staphylococcus aureus [2]; 2 µg/mL (≈ 5.95 µM) against Staphylococcus aureus [3]; 2 µg/mL (≈ 5.95 µM) against Staphylococcus aureus [4]; 1 µg/mL (≈ 2.97 µM) against Staphylococcus aureus [5]; 2 µg/mL (≈ 5.95 µM) against Staphylococcus aureus [6]; 2 µg/mL (≈ 5.95 µM) in the assay with Staphylococcus aureus [7]. The MIC against Staphylococcus aureus [8] was found to be 4 µg/mL (≈ 11.9 µM); against Staphylococcus aureus [9], 2 µg/mL (≈ 5.95 µM); with Staphylococcus aureus [10], 1 µg/mL (≈ 2.97 µM); against Staphylococcus aureus [11], 2 µg/mL (≈ 5.95 µM); with Staphylococcus aureus [12] it was 2 µg/mL (≈ 5.95 µM); with Staphylococcus aureus [13], 4 µg/mL (≈ 11.9 µM). The MIC in the assay with Staphylococcus aureus [14] is 2 µg/mL (≈ 5.95 µM); in assay [15], 2 µg/mL (≈ 5.95 µM); in [16], 2 µg/mL (≈ 5.95 µM); in [17], 0.5 µg/mL (≈ 1.49 µM); in [18] it was 2 µg/mL (≈ 5.95 µM); in assay [19], 2 µg/mL (≈ 5.95 µM). The MIC in assay [20] is 1 µg/mL (≈ 2.97 µM); in assay [21], 1 µg/mL (≈ 2.97 µM); in assay [22] it was 1 µg/mL (≈ 2.97 µM); against Enterococcus faecalis [23], more than 128 µg/mL; against Enterococcus faecalis [24], more than 128 µg/mL; in the assay on Enterococcus faecium [25], more than 128 µg/mL. Moreover, in the assay on Enterococcus faecium [26], the minimum inhibitory concentration (MIC) is more than 128 µg/mL.

For the compound `CNC1=NC(=O)C(C(C)c2c[nH]c3ccccc23)S1` (racemic), the MIC against Staphylococcus aureus [1] was more than 128 µg/mL; in the assay on Staphylococcus aureus [2] it was 4 µg/mL (≈ 14.6 µM); against Escherichia coli it was more than 128 µg/mL.

Take `CC(c1c[nH]c2ccccc12)C1SC(N)=NC1=O` (racemic): the minimal inhibitory concentration (MIC) in the assay with Staphylococcus aureus [1] was more than 128 µg/mL; in the assay with Staphylococcus aureus [2], 8 µg/mL (≈ 30.8 µM); against Escherichia coli it was more than 128 µg/mL.

As to `CNC1=NC(=O)C(C(C)c2c[nH]c3c(Br)cccc23)O1` (racemic), the MIC in the assay with Staphylococcus aureus [1], against Staphylococcus aureus [2] and with Escherichia coli was more than 128 µg/mL each time.

For the compound `CNC1=NC(=O)C(C(C)c2c[nH]c3ccc(C)cc23)O1` (racemic), the MIC against Staphylococcus aureus [1], against Staphylococcus aureus [2] and in the assay on Escherichia coli was more than 128 µg/mL in each case.

As for `CNC1=NC(=O)[C@@H]([C@@H](C)c2c[nH]c3cc(F)ccc23)O1`, the MIC with Staphylococcus aureus [2], in the assay on Staphylococcus aureus [3], against Staphylococcus aureus [4], in the assay with Staphylococcus aureus [5], in the assay on Staphylococcus aureus [6] and against Staphylococcus aureus [7] was more than 128 µg/mL in each case. The MIC against Staphylococcus aureus [8], in the assay on Staphylococcus aureus [9], in the assay on Staphylococcus aureus [10], in the assay with Staphylococcus aureus [11], against Staphylococcus aureus [12] and against Staphylococcus aureus [13] was more than 128 µg/mL throughout. Also, the MIC (in the assay with Staphylococcus aureus [14]; in assay [15]; in [16]; in [17]; in assay [18]; in [19]) was more than 128 µg/mL in each case. Moreover, the minimum inhibitory concentration (MIC) (in [20]; in assay [21]; in assay [22]; in the assay with Enterococcus faecalis [23]; in the assay on Enterococcus faecalis [24]; against Enterococcus faecium [25]) was more than 128 µg/mL in each case. This compound gave an MIC in the assay on Enterococcus faecium [26] of more than 128 µg/mL.

`CNC1=NC(=O)C(C(C)c2c[nH]c3c(C)cccc23)O1` (racemic): the MIC with Staphylococcus aureus [1], with Staphylococcus aureus [2] and against Escherichia coli was more than 128 µg/mL each time.

As for `CNC1=NC(=O)C(C(C)c2c[nH]c3cccc(OC)c23)O1` (racemic), the MIC with Staphylococcus aureus [1] was more than 128 µg/mL; with Staphylococcus aureus [2], 128 µg/mL (≈ 445 µM); against Escherichia coli it was 16 µg/mL (≈ 55.7 µM).

Consider `CNC1=NC(=O)C(C(C)c2c[nH]c3cccc(Br)c23)S1` (racemic), for which the MIC was more than 128 µg/mL against Staphylococcus aureus [1], 16 µg/mL (≈ 45.4 µM) against Staphylococcus aureus [2] and more than 128 µg/mL in the assay on Escherichia coli.

Take `CN[C@H](CC(C)C)C(=O)N[C@H]1C(=O)N[C@@H](CC(N)=O)C(=O)N[C@H]2C(=O)N[C@H]3C(=O)N[C@H](C(=O)N[C@H](C(=O)O)c4cc(O)cc(O)c4-c4cc3ccc4O)[C@H](O)c3ccc(c(Cl)c3)Oc3cc2cc(c3O[C@@H]2O[C@H](CO)[C@@H](O)[C@H](O)[C@H]2O[C@H]2C[C@](C)(N)[C@H](O)[C@H](C)O2)Oc2ccc(cc2Cl)[C@H]1O` [VANCOMYCIN]: the MIC in the assay with Staphylococcus aureus [10] turned out to be 8 µg/mL (≈ 5.52 µM); against Enterococcus faecalis [23] it was 2 µg/mL (≈ 1.38 µM).

Take `CNC1=NC(=O)C(C(C)c2c[nH]c3cccc(O)c23)O1` (racemic): the MIC against Staphylococcus aureus [1] is 8 µg/mL (≈ 29.3 µM); in the assay on Staphylococcus aureus [2], more than 128 µg/mL; against Escherichia coli it was more than 128 µg/mL.
